Where a name gives a salt, the structure may show the parent alone.
What was measured:
[1] = tested on: women; experiment: unpublished clinical study of DHEA cream (transdermal) or pellets (subcutaneous) in women; format: in vivo, human
Excerpt: A third embodiment of the present invention comprises a new use of a well-established steroid hormone. The invention includes both the topical application of the hormone in cream form and the subcutaneous implantation of the hormone in pellet form for the purpose of female sexual enhancement.
The hormone is dehydroepiandrosterone (DHEA) and the carrying agent for its topical use is a proprietary compound, Q-base cream. Q-base cream is available to compound pharmacies all over the United States and consists of the following formulation: • purified water, cyclomethicone, octyl stearate, arlacel 165 (PEG-100 stearate/glyceryl stearate), sorbitol, green tea extract (organic), stearyl alcohol, cyclopentasiloxane and PEG/PPG-18/18 dimethicone, gingko extract (organic), ginseng extract (organic), tocotrienols, vitamin E acetate, wheat germ oil, edetate disodium, xanthan gum, vitamin A palmitate, coenzyme Q10, methylchloroisothiazolinone/methylisothiazolin one.
Alternatively, the carrying agent for the DHEA may comprise H-base cream. The formula for H-base cream is as follows: • water, glycerin, canola oil, stearic acid, cetyl alcohol, PEG-100 stearate, glyceryl stearate, dimethicone, magnesium aluminum silicate, propylene glycol, triethanolamine, polysorbate 60, xanthan gum, bitter almond kernel oil, aloe vera, grape seed extract, wheat germ oil, vitamin E acetate, vitamin A palmitate, Vitamin C palmitate, tetrasodium EDTA, potassium sorbate, diazolidinyl urea. H base cream is a proprietary product produced by Professional Compounds Centers of America and licensed by it.
The method of application of either the Q-base cream/DHEA mixture or the H-base cream/DHEA mixture in females is local application to the erectile tissue of the nipples and glans clitoris. The ratio of ingredients comprising the Q-base cream/DHEA mixture is between about 25 mg and about 50 mg of DHEA to about 1 cc of Q-base cream. The ratio of ingredients comprising the H-base cream/DHEA mixture is substantially the same. The resulting mixture is applied one time per day but not related to intercourse. Implantation of subcutaneous DHEA pellets is at the strength of about 25 mg of DHEA per pellet at intervals of between about 2 months and about 3 months. […] Normal levels are considered to be 50-100 picograms per milliliter.
In an unpublished clinical study of the third embodiment of the invention over the past three years patient acceptance and satisfaction has been clear-cut and in excess of 95%. The response is dependent on the patient having normal blood levels of estradiol and testosterone as well. A normal level of DHEA is about 50 to about 100 picograms per milliliter. A normal level of estradiol is about 50 to about 100 picograms per milliliter and a normal level of testosterone is about 200 to about 540 picograms per milliliter. Normal ranges for all these levels can vary from laboratory to laboratory.

[2] = tested on: women; conditions: headaches, facial flushing, nasal congestion, indigestion, bluish tinge to vision, blindness; cited from earlier work
[3] = tested on: women; conditions: widely used for years; cited from earlier work
[4] = tested on: women; experiment: administration of vardenafil hydrochloride or tadalafil to women prior to sexual activity; format: in vivo, human
Procedure: More particularly, the initial step in the process comprising the first embodiment of the invention comprises identifying a woman desiring sexual enhancement. […] Thereafter, the woman's blood is tested to determine the levels of estradiol and testosterone. If the woman's blood contains an estradiol level within a first predetermined range and a testosterone level within a second predetermined range, the process of the present invention continues. If not, the woman is treated utilizing conventional techniques to bring the level of estradiol in her blood to within the first predetermined range and/or to bring the level of testosterone in her blood to within the second predetermined range. […]
After the required levels of estradiol and testosterone in the woman's blood have either been confirmed or established, a drug selected from the group consisting of vardenafil hydrochloride and tadalafil is administered to the woman prior to sexual activity. […] It has been determined that the selected drug should be administered at least 15-20 minutes prior to the beginning of sexual activity. The optimum time interval between administration of the selected drug and the beginning of sexual activity may vary depending on the particular circumstances and is best determined by the woman through experimentation. […]

[5] = tested on: women; conditions: normal estradiol and testosterone levels not established before the drug was used; cited from earlier work

SMILES: C[C@]12CC[C@H](O)CC1=CC[C@@H]1[C@@H]2CC[C@]2(C)C(=O)CC[C@@H]12 [DHEA, dehydroepiandrosterone]
- blood levels, cream versus subcutaneous pellets ([1]; cream once per day versus about 25 mg pellet every 2 to 3 months): Identical blood levels are achieved with both methods of application
- patient acceptance and satisfaction ([1]; third embodiment, over the past three years, normal blood levels of estradiol and testosterone): > 95%
- female sexual pleasure and satisfaction including sexual arousal and achievement of orgasm ([1]; transdermal or subcutaneous, women with normal estradiol and testosterone): enhanced
- blood level above which excess androgen complications occur (male pattern hair loss, excess facial hair growth, acne) ([1]; women): exceed 100 picograms per milliliter
- safety profile of administration ([1]; women): extraordinary

SMILES: CCCc1nn(C)c2c(=O)[nH]c(-c3cc(S(=O)(=O)N4CCN(C)CC4)ccc3OCC)nc12 [VIAGRA, sildenafil citrate]
- side effects observed in women using the drug for sexual enhancement [2]: unacceptable side effects

SMILES: CN1CC(=O)N2[C@H](c3ccc4c(c3)OCO4)c3[nH]c4ccccc4c3C[C@@H]2C1=O [tadalafil]
- safety profile [3]: remarkable safety profiles

SMILES: CCCc1nc(C)c2c(=O)[nH]c(-c3cc(S(=O)(=O)N4CCN(CC)CC4)ccc3OCC)nn12 [vardenafil hydrochloride]
- enhancement of sexual arousal and sexual satisfaction in females ([4]; drug given prior to sexual activity): significant enhancement
- efficacy in women compared with men ([4]; experiences over the past 2 years, lower dosage, used correctly (normal estradiol and testosterone)): even more effective (lower dosage) in women than in men
- safety profile [3]: remarkable safety profiles
- efficacy in women [5]: ineffective in women
